Data as given in ChEMBL document CHEMBL1142831, “Identification of a potent non-hydroxamate histone deacetylase inhibitor by mechanism-based drug design” (Bioorg Med Chem Lett, 2005).

Legend:
[1] = target: Histone deacetylase (Homo sapiens) (UniProt Q13547+O15379+Q9UBN7+Q92769+Q9UQL6+Q8WUI4+Q9BY41+Q96DB2+P56524+Q9UKV0+Q969S8); conditions: HeLa, at 100 µM
Description: Percentage inhibition against histone deacetylase of HeLa cells at 100 uM

Histone deacetylase = test: Inhibitory concentration against histone deacetylase of HeLa cells; type: cell-based, Homo sapiens

inhibition [1]	IC50 (Histone deacetylase)	SMILES
99%		O=C(CS)NCCCCCC(=O)Nc1ccccc1
	> 100 µM	O=C(CO)NCCCCCC(=O)Nc1ccccc1
	> 100 µM	NCC(=O)NCCCCCC(=O)Nc1ccccc1
72%	22 µM	CC(=O)SCC(=O)NCCCCCC(=O)Nc1ccccc1

The next lines start with the compound.

SMILES	inhibition [1]	IC50 (Histone deacetylase)
CS(=O)(=O)CCCCCCC(=O)Nc1ccccc1	33%	230 µM
O=C(CS)NCCCCC(=O)Nc1ccccc1	88%	11 µM
O=C(CCS)NCCCCCC(=O)Nc1ccccc1	78%	24 µM
CS(=O)(=O)NCCCCCC(=O)Nc1ccccc1	10%	7500 µM
O=C(CS)NCCCCCCC(=O)Nc1ccccc1	96%	3 µM
